Consider 16 compounds from ChEMBL document CHEMBL1208728, “Design, synthesis, and structure-activity relationships of pyrazole derivatives as potential FabH inhibitors” (Bioorg Med Chem Lett, 2010).

Values after ≈ are worked out from the molar mass of the structure shown.

Data set [1] has as its system Enterococcus faecalis. Nature of the data set: Antimicrobial activity against Streptococcus faecalis ATCC 9790 by MTT assay. In kind it is functional.
Data set [2] deals with Staphylococcus aureus. Briefly: Antimicrobial activity against Staphylococcus aureus ATCC 6538 by MTT assay. In kind it is functional.
Data set [3] is described as follows: Toxicity against RBC assessed as hemolysis. In kind it is cell-based. The settings on record: erythrocyte.
In data set [4] the test system is Bacillus subtilis. Briefly: Antimicrobial activity against Bacillus subtilis ATCC 6633 by MTT assay. In kind it is functional.
Data set [5] has as its system Enterobacter cloacae. Nature of the data set: Antimicrobial activity against Enterobacter cloacae ATCC 13047 by MTT assay. The data set is classed as functional.
Data set [6] concerns the target T1, 3-oxoacyl-[acyl-carrier-protein] synthase 3 (Escherichia coli, UniProt C3TDZ2).
T1 sequence (C3TDZ2 whole entry): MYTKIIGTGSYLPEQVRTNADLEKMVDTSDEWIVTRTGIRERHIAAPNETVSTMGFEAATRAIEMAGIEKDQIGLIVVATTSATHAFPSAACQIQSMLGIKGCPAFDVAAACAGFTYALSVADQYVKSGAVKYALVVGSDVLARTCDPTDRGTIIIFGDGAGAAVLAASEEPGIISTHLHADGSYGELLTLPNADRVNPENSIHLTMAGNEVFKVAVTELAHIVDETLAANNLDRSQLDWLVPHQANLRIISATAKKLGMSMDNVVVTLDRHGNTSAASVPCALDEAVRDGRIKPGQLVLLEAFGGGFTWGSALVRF
Nature of the data set: Inhibition of Escherichia coli FabH.

Data set [7] deals with Pseudomonas aeruginosa. Briefly: Antimicrobial activity against Pseudomonas aeruginosa ATCC 13525 by MTT assay. The data set is classed as functional.
Data set [8] has as its system Escherichia coli. Nature of the data set: Antimicrobial activity against Escherichia coli ATCC 35218 by MTT assay. The data set is classed as functional.

For the compound `COc1ccc(C2=NN(C(C)=O)C(c3ccc(Br)cc3)C2)cc1` (stereo not drawn), the MIC in data set [1] is 3.12 µg/mL (≈ 8.37 µM); in data set [2], 12.5 µg/mL (≈ 33.5 µM); in data set [4] it was 12.5 µg/mL (≈ 33.5 µM); in data set [5] it was above 50 µg/mL; in data set [7] it was 12.5 µg/mL (≈ 33.5 µM); in data set [8], 1.56 µg/mL (≈ 4.18 µM). The LC30 in data set [3] was above 10000 µg/mL. The same compound gave an IC50 in data set [6] of 10.4 µM.
In the case of `CC1(C)S[C@@H]2[C@H](NC(=O)Cc3ccccc3)C(=O)N2[C@H]1C(=O)O` [PENICILLIN G], the MIC in data set [1] is 1.56 µg/mL (≈ 4.67 µM); in data set [2], 6.25 µg/mL (≈ 18.7 µM); in data set [4], 1.56 µg/mL (≈ 4.67 µM); in data set [5], 3.12 µg/mL (≈ 9.35 µM); in data set [7], 6.25 µg/mL (≈ 18.7 µM); in data set [8], 3.12 µg/mL (≈ 9.35 µM).
As to `COc1cc(OC)cc(C2CC(c3ccc(Br)cc3)=NN2C(C)=O)c1` (stereo not drawn), the MIC was determined as 25 µg/mL (≈ 62 µM) in data set [1]; 6.25 µg/mL (≈ 15.5 µM) in data set [2]; 50 µg/mL (≈ 124 µM) in data set [4]; 12.5 µg/mL (≈ 31 µM) in data set [5]; 3.12 µg/mL (≈ 7.75 µM) in data set [7]; 50 µg/mL (≈ 124 µM) in data set [8].
On to `CC(=O)N1N=C(c2ccc(Cl)cc2)CC1c1ccc(C)cc1` (stereo not drawn), for which the MIC in data set [1] was determined as 25 µg/mL (≈ 79.9 µM); in data set [2] it was 12.5 µg/mL (≈ 40 µM); in data set [4], 6.25 µg/mL (≈ 20 µM); in data set [5] it was 12.5 µg/mL (≈ 40 µM); in data set [7], 12.5 µg/mL (≈ 40 µM); in data set [8] it was 12.5 µg/mL (≈ 40 µM).
As to `CC(=O)N1N=C(c2ccccc2F)CC1c1ccc(F)cc1` (stereo not drawn), the MIC was 50 µg/mL (≈ 166 µM) in data set [1]; above 50 µg/mL in data set [2]; 25 µg/mL (≈ 83.2 µM) in data set [4]; above 50 µg/mL in data set [5]; 12.5 µg/mL (≈ 41.6 µM) in data set [7]; 50 µg/mL (≈ 166 µM) in data set [8].
On to `COc1cc(OC)cc(C2CC(c3ccccc3)=NN2C(C)=O)c1` (stereo not drawn), for which the MIC was 25 µg/mL (≈ 77.1 µM) in data set [1]; 25 µg/mL (≈ 77.1 µM) in data set [2]; 12.5 µg/mL (≈ 38.5 µM) in data set [4]; above 50 µg/mL in data set [5]; 25 µg/mL (≈ 77.1 µM) in data set [7]; 25 µg/mL (≈ 77.1 µM) in data set [8].
On to `CC(=O)N1N=C(c2ccccc2)CC1c1ccc(Br)cc1` (stereo not drawn), for which the MIC in data set [1] was 12.5 µg/mL (≈ 36.4 µM); in data set [2] it was above 50 µg/mL; in data set [4], 25 µg/mL (≈ 72.8 µM); in data set [5], 12.5 µg/mL (≈ 36.4 µM); in data set [7], 25 µg/mL (≈ 72.8 µM); in data set [8] it was 12.5 µg/mL (≈ 36.4 µM).
Consider `CC(=O)N1N=C(c2ccc(Cl)cc2)CC1c1ccc(F)cc1` (stereo not drawn), for which the MIC worked out at 1.56 µg/mL (≈ 4.93 µM) in data set [1]; 12.5 µg/mL (≈ 39.5 µM) in data set [2]; 12.5 µg/mL (≈ 39.5 µM) in data set [4]; 25 µg/mL (≈ 78.9 µM) in data set [5]; 12.5 µg/mL (≈ 39.5 µM) in data set [7]; 25 µg/mL (≈ 78.9 µM) in data set [8].
On to `CC(=O)N1N=C(c2ccccc2)CC1c1ccccc1` (stereo not drawn), for which the MIC in data set [1] was 12.5 µg/mL (≈ 47.3 µM); in data set [2], 25 µg/mL (≈ 94.6 µM); in data set [4] it was 25 µg/mL (≈ 94.6 µM); in data set [5], 12.5 µg/mL (≈ 47.3 µM); in data set [7], 12.5 µg/mL (≈ 47.3 µM); in data set [8], 25 µg/mL (≈ 94.6 µM).
For the compound `CC(=O)N1N=C(c2ccccc2)CC1c1ccc(F)cc1` (stereo not drawn), the MIC in data set [1] was 50 µg/mL (≈ 177 µM); in data set [2], 25 µg/mL (≈ 88.6 µM); in data set [4], 25 µg/mL (≈ 88.6 µM); in data set [5], 12.5 µg/mL (≈ 44.3 µM); in data set [7], 12.5 µg/mL (≈ 44.3 µM); in data set [8], 25 µg/mL (≈ 88.6 µM).
Take `COc1ccc(C2CC(c3ccccc3F)=NN2C(C)=O)cc1` (stereo not drawn): the MIC in data set [1] is 12.5 µg/mL (≈ 40 µM); in data set [2], 25 µg/mL (≈ 80 µM); in data set [4], 6.25 µg/mL (≈ 20 µM); in data set [5], 25 µg/mL (≈ 80 µM); in data set [7] it was 25 µg/mL (≈ 80 µM); in data set [8], 12.5 µg/mL (≈ 40 µM).
In the case of `CC(=O)N1N=C(c2ccc(Cl)cc2)CC1c1ccc(Br)cc1` (stereo not drawn), the MIC was 6.25 µg/mL (≈ 16.5 µM) in data set [1]; 25 µg/mL (≈ 66.2 µM) in data set [2]; 6.25 µg/mL (≈ 16.5 µM) in data set [4]; above 50 µg/mL in data set [5]; above 50 µg/mL in data set [7]; 12.5 µg/mL (≈ 33.1 µM) in data set [8].
As for `CC(=O)N1N=C(c2ccc(Cl)c(Cl)c2)CC1c1ccccc1` (stereo not drawn), the MIC is 12.5 µg/mL (≈ 37.5 µM) in data set [1]; above 50 µg/mL in data set [2]; 6.25 µg/mL (≈ 18.8 µM) in data set [4]; 25 µg/mL (≈ 75 µM) in data set [5]; 25 µg/mL (≈ 75 µM) in data set [7]; 12.5 µg/mL (≈ 37.5 µM) in data set [8].
For `CC(=O)N1N=C(c2ccc(C)c(C)c2)CC1c1ccc(Br)cc1` (stereo not drawn), the MIC amounted to 50 µg/mL (≈ 135 µM) in data set [1]; 12.6 µg/mL (≈ 33.9 µM) in data set [2]; 25 µg/mL (≈ 67.3 µM) in data set [4]; 3.12 µg/mL (≈ 8.42 µM) in data set [5]; 12.5 µg/mL (≈ 33.7 µM) in data set [7]; 25 µg/mL (≈ 67.3 µM) in data set [8].
With `CC(=O)N1N=C(c2ccc(Br)cc2)CC1c1ccc(F)cc1` (stereo not drawn), the MIC in data set [1] was determined as 1.56 µg/mL (≈ 4.32 µM); in data set [2] it was 1.56 µg/mL (≈ 4.32 µM); in data set [4], 25 µg/mL (≈ 69.2 µM); in data set [5] it was 12.5 µg/mL (≈ 34.6 µM); in data set [7] it was 3.12 µg/mL (≈ 8.65 µM); in data set [8] it was 12.5 µg/mL (≈ 34.6 µM).
Regarding `CC(=O)N1N=C(c2ccc(Cl)cc2)CC1c1ccccc1` (stereo not drawn), the MIC in data set [1] is 25 µg/mL (≈ 83.7 µM); in data set [2] it was above 50 µg/mL; in data set [4] it was 12.5 µg/mL (≈ 41.8 µM); in data set [5] it was 12.5 µg/mL (≈ 41.8 µM); in data set [7], above 50 µg/mL; in data set [8], 25 µg/mL (≈ 83.7 µM).
